Data set [1] deals with P-AKT. The experiment in a line: P-AKT staining of core biopsies by IHC. It is filed as in vivo, human. As to conditions: day 21 (16/20 at baseline). How it is done:
(§1) All IHC analyses and scoring for extent (0 to 4) and intensity (0 to 3) were performed at the Houston Memorial Hermann Pathology laboratory as previously described. After antigen retrieval (Tris-Cl, pH 9.0), paraffin-embedded sections of sample tumors were incubated for 1 h at room temperature with the following antibodies: anti-human CXCR1 (rabbit polyclonal to CXCR1 - C-terminal, ab137351; Abcam, Cambridge, MA), anti-human CD31 (clone JC70A, #IS610; Dako, Glostrup, Denmark), anti-human p62 (clone SQSTM1/p62, # 5114; Cell Signaling), anti-human AKT (rabbit polyclonal to pan-AKT, # ab8805; Abcam), anti-human FAK (clone pY861, #44-626G; Invitrogen, Qiagen, Carlsbad, CA), anti-human phospho-AKT (clone Ser473 (D9E), #4060; Cell Signaling), anti-human phospho-FAK (clone Y397, #ab4803; Abcam), and anti-human LC3B (clone D11, #3868; Cell Signaling). For the evaluation of extent, the following semi-quantitative score method (0 to 4) was used: 0, no positive cells; 1, 1–25%; 2, 26–50%; 3, 51–75%; and 4, 76–100%.

Data set [2] has as its system CXCR1/2+ cells. Also on record: method as in PMID 22996693. As to conditions: preclinical models; cited from earlier work.
Data set [3] relates to metastatic HER-2-negative BC. Details: method as in PMID 28539464. As to conditions: in combination with weekly paclitaxel, cited from earlier work.
In data set [4] the test system is CD31. The experiment in a line: CD31 staining of core biopsies by IHC. It is filed as in vivo, human. As to conditions: day 21 (16/20 at baseline). As to the method:
as §1

In data set [5] the test system is CXCR1. Nature of the data set: CXCR1 expression on tumor cells by IHC. It is filed as in vivo, human. As to conditions: largest proportion at levels 4 and 3 at baseline; level 3 and 2 or lower at day 21. As to the method:
as §1

In data set [6] the test system is CXCR1+ cells. Nature of the data set: CXCR1+ cell evaluation in core biopsy samples by flow cytometry. The class given is in vivo, human. The source says:
Patients underwent core biopsies at baseline (day − 14 to 0) and at the completion of therapy (day 21). Three to five ≥ 18-gage needle biopsies were taken to measure the changes in CSC populations and pathway markers. If not performed at the completion of treatment, a core biopsy was taken on the day of surgery by the same technique. A sample of the surgically resected tumor tissue was also taken. Additional analyses were directed to determine CXCR1 (PerCP/Cy5.5 mouse anti-human CD181 (CXCR1; BioLegend, San Diego, CA) and cell lineages using the following antibodies: APC mouse anti-human CD44 (BD Bioscience, San Jose, CA; catalog #559942), PE-Cy7 mouse anti-human CD24 (#561646), PE mouse anti-human CD2 (#555327), PE mouse anti-human CD31 (#555446), PE mouse anti-human CD3 (#555333), PE mouse anti-human CD18 (#555924), PE mouse anti-human CD16 (#555407), PE mouse anti-human CD19 (#555413), and PE mouse anti-human CD45 (#555483).

In data set [7] the test system is CXCL8 and other cytokines. Nature of the data set: Serum cytokine levels (Milliplex/Luminex). The class given is in vivo, human. As to conditions: day 1 vs day 21. How it is done:
The concentrations of interleukin (IL)-1β, IL-6, CXCL8, tumor necrosis factor (TNF)-α, granulocyte macrophage colony stimulating factor (GM-CSF), vascular endothelial growth factor (VEGF), and basic fibroblast growth factor (b-FGF) were measured in sera obtained from patients on days 1 and 21 of the study.
In brief, serum cytokines levels were measured using a method, as previously published. Serum samples were processed and aliquoted within 24 hours for archiving at -80 °C. Samples were analyzed in batch using Milliplex bead kits (EMD Millipore Corporation, Billerica, MA) according to the manufacturer’s protocol with overnight incubations and an additional point added at the low end of the standard curve, and analyzed using a Luminex LX100 (Luminex Corporation, Austin, TX). BioPlex control and analysis software Version 5.0, (BioRad, Hercules, CA) was used.

Data set [8] has as its system human BC cell lines and xenografts. Also on record: method as in PMID 20051626. As to conditions: single agent and in combination with chemotherapy; cited from earlier work.
A short description of data set [9]: Pharmacokinetics of single-agent oral reparixin in plasma. The class given is in vivo, human. How it is done:
Samples for pharmacokinetics (PK) were collected at selected sites in consenting patients. Venous blood samples (6 mL) were collected from a forearm vein at times 0.0, 0.25, 0.5, 1.0, 2.0, 4.0, 6.0, and 8.0 h following reparixin administration on days 1 and 21. The blood samples were immediately centrifuged at 4 °C, 1200 relative centrifugal force (RCF), for 10 min, and the plasma collected. Each plasma sample was divided into 2 aliquots and stored in 2 pre-labeled polypropylene screw-capped tubes (about 2 mL each) at − 20 °C until analysis. The analysis was performed at the Dompé Analytical Development Laboratories in L’Aquila, Italy.

For data set [10], the system named is monocytes and PMNs. The experiment in a line: Intracellular cytokine production by monocytes and PMNs by flow cytometry. The class given is in vivo, human. As to conditions: without or with activation by LPS and/or CXCL8; data not shown. As to the method: Intracellular cytokine production by peripheral blood monocytes and PMNs were assessed using a modification of previously published procedure. Briefly, monocytes and PMNs in whole blood were activated with CXCL8 (10nM), LPS ([…]), and LPS+CXCL8 for 2 hours at 37 °C before the addition of Brefeldin A (BFA) for another 3 hours to block the transportation of the intracellular cytokines from the Golgi to the cell surface. Thereafter, red blood cells were lysed with 1×FACSTM Lysing Solution (BD Biosciences) and the membrane of activated cells permeabilized with 1×FACSTM Perm 2 solution (BD Biosciences). Next, the activated monocytes and PMNs were stained with fluorochrome-conjugated specific antibodies to IL-1β, TNF-α, CXCL8, and IL-6 before the samples were analyzed by flow cytometry. The percentages of monocytes and PMNs that produced IL-1β, TNF-α, CXCL8, and IL-6 were recorded.
In general terms: A flow cytometer gives signals particle by particle.

Data set [11] relates to CD18+ PMNs. Nature of the data set: Adhesion molecule expression on peripheral blood PMNs by flow cytometry. As to conditions: after 21 days of treatment vs baseline; p < 0.05. It is filed as in vivo, human. As to the method:
The expression of adhesion molecules (CD11b, CD18, and CD66b) on PMNs was investigated. Typically, 100 µL of whole blood were incubated with 10nM CXCL8 for 10 minutes at room temperature to upregulate the expression of adhesion molecules. Untreated whole blood samples were included as control. We measured the percentage of PMNs that expressed CD11b, CD18, and CD66b as well as the Mean Fluorescence of Intensity (MFI) of each adhesion molecule as a measure of expression density by flow cytometry.

Setting [12] is: female, human, in vivo, po, 1000 mg.

Each structure is given as a SMILES string.

For the compound `CC(C)Cc1ccc([C@@H](C)C(=O)NS(C)(=O)=O)cc1` [reparixin], the “patients with value of 0 for P-AKT, extent and intensity” value in data set [1] is 11/15. For the same compound, in [2], the “recruitment of CXCR1/2+ cells from the bloodstream to visceral sites” value is recorded as “reduce”. Also, in [3] (27 evaluable patients), the “long-lasting CR” value was 2 and the response rate is 30%. In data set [3] (all grade ≤ 2), the “gastrointestinal disorders, share of all TEAEs” value is reported as 39%. In addition, in data set [3], the “Grade 3 treatment-related TEAE, share of all reports” value is listed as 2.7%. The “patients with value of 0 for CD31, extent and intensity” value in [4] is listed as 11/15. In [5], the “CXCR1 positivity, extent and intensity, change at day 21” value is recorded as “decrease”. In data set [6], the “patients with CXCR1+ tumor cells decreased at day 21” value is recorded as 7/13, the “patients with all viable CXCR1+ cells reduced at day 21 vs baseline” value was 6/13 and the “patients with parallel decrease in both CXCR1+ cell populations” value is 4/13. Besides, the “other cytokines (IL-1β, IL-6, TNF-α, GM-CSF, VEGF, b-FGF), change” value in data set [7] is recorded as “No statistically significant changes”. In data set [8], the “metastatic spread of human BC cells and CSC (ALDH+ and CD24−/CD44+) content” value is “reduced”. Further, in [9] (setting [12]), the Tmax is 1 h and the half-life was around 2 h. In addition, the “bioavailability following oral administration” value in data set [9] (human, in vivo, po) was “high bioavailability”. Moreover, the “systemic exposure (Cmax and AUClast), change from day 1 to day 21” value in data set [9] (human, in vivo, po, 1000 mg) is “did not change”. Moreover, the “accumulation upon multiple dosing” value in [9] (oral 1000 mg t.i.d. for 21 days) is reported as “no accumulation”. Also, the “production of inflammatory cytokines (CXCL8, IL-6, TNF-α, IL-1β) by monocytes and PMNs” value in data set [10] is given as “No statistically significant difference”. Further, in data set [11], the “percentage of CD18+ PMNs following in vitro stimulation with CXCL8” value is given as “decreased”.

As a reminder, the Tmax is the time from dosing to the highest level. Broadly, the half-life is the time in which the quantity being followed falls by half. High values mean slow decline, low ones rapid decline.
